Measured values as given in US8211916B2, “N- and O-substituted 4-[2-(diphenylmethoxy)-ethyl]-1-[(phenyl)methyl]piperidine analogs and methods of treating CNS disorders therewith” (Wayne State University, priority 2000, dated 2012).
Structures can show the parent of a compound that is named as a salt. Where two headings read alike, the source gives them in different places.

How the values were obtained:
[1] = target: T1, DAT (Rattus norvegicus, UniProt P23977); experiment: Uptake of [3H]DA by DAT, rat striatum; assay type: biochemical; details: for Ki: [3H]DA uptake, rat striatum
T1 construct: from tissue; host or cells: rat striatum
T1 sequence (P23977 whole entry): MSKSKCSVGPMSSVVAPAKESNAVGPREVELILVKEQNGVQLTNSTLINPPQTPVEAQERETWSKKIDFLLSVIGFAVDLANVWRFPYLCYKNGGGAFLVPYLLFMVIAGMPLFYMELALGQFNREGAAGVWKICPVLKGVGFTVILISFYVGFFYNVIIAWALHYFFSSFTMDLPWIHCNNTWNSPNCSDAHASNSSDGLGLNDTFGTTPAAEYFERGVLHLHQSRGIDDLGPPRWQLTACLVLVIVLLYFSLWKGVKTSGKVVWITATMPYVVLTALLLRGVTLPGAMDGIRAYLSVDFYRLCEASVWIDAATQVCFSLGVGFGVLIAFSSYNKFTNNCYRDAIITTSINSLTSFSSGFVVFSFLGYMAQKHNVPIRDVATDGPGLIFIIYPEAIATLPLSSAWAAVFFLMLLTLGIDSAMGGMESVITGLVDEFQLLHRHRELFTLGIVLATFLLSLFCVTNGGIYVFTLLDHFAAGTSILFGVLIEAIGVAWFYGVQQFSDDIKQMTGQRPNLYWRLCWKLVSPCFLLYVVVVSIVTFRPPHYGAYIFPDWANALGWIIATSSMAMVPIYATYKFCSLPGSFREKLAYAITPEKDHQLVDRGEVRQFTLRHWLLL
Text: Transporter assays. The affinity of test compounds in binding to rat DAT and in inhibiting monoamine uptake was monitored as described by us previously. […] Rat cerebral cortex was used for assessing uptake of [^3H]serotonin by SERT and hippocampus for uptake of [^3H]NE by NET. […] At lease five triplicate concentrations of each test compound were studied, spaced evenly around the IC50 value. The latter was estimated by nonlinear computer curve-fitting procedures and converted to Ki with the Cheng-Prusoff equation.

[2] = target: rat DAT (Rattus norvegicus, UniProt P23977); experiment: Rat DAT binding, [3H]Win 35,428, striatal membranes
Chain of rat DAT (P23977 whole entry): as above
Experimental: (§1) Briefly, rat striatal membranes were incubated with radioligand and inhibitor for 2 h on ice in a sodium phosphate buffer at a final Na^+ concentration of 30 nM, pH 7.4, at room temperature. The assays were terminated by filtration through glass fiber filtermats (Wallac, Inc., Gaithersburg, Md.), presoaked in 0.05% (v/v) polyethyleneimine, with a MACH3-96 Tomtec harvester (Wallac, Inc.). Filters were assayed for radioactivity in a Microbeta Plus liquid scintillation counter (Wallac, Inc.).

[3] = target: T2, Norepinephrine (NET) Transporter (Rattus norvegicus, UniProt Q63380); experiment: NET binding, [3H]nisoxetine
T2 construct: and norepinephrine Transporters in Rat Striatum; from tissue
T2 sequence (Q63380 1-617): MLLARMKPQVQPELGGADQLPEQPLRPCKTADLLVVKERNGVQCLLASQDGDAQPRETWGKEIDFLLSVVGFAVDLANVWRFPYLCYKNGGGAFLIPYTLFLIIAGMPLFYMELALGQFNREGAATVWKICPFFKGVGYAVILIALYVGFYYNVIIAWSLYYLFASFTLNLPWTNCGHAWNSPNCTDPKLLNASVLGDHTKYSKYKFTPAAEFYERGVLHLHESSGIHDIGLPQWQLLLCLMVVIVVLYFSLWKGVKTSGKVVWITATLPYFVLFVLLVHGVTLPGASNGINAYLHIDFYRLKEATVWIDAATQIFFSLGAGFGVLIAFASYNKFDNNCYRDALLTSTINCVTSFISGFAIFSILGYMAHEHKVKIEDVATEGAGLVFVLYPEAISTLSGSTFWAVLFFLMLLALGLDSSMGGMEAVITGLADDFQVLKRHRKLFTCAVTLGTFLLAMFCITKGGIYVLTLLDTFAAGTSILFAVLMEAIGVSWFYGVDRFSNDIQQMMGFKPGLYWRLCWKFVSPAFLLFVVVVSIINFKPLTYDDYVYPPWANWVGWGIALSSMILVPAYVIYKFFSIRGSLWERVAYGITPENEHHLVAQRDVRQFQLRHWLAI

[4] = target: T3, rat SERT (Rattus norvegicus, UniProt P31652); experiment: Rat SERT binding, [3H]citalopram, striatal membranes
T3 construct: from tissue; host or cells: rat striatum (membranes)
T3 sequence (P31652 whole entry): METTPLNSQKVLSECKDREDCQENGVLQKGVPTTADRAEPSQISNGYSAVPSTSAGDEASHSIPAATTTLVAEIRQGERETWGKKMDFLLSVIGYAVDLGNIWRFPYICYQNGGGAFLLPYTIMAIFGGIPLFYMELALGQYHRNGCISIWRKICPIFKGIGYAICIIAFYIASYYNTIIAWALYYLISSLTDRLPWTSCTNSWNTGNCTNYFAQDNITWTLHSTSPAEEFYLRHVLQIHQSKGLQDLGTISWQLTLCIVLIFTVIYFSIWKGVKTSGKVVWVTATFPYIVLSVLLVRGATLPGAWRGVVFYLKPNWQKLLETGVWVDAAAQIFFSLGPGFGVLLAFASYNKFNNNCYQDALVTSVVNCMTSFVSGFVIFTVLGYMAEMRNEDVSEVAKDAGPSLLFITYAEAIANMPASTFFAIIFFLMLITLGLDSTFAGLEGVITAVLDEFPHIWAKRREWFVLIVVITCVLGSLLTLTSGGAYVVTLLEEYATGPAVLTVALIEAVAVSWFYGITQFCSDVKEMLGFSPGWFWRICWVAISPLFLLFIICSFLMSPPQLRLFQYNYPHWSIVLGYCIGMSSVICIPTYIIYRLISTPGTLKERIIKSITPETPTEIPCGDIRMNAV
Experimental: as §1

[5] = read-out: Ki (DAT), inhibition of DA uptake
[6] = Ki (DAT), inhibition of DA uptake

With O[C@H](CN[C@H]1CC[C@@H](C(c2ccccc2)c2ccccc2)NC1)Cc1ccccc1 [Example 4d, (S)-1-[(3S,6S)-6-benzhydrylpiperidin-3-ylamino)-3-phenylpropan-2-ol] as the molecule, how does the Ki [1, 5] read?
The Ki was 25.3 nM.

For Fc1ccc(C(NCC2CCN(CCc3ccccc3)CC2)c2ccc(F)cc2)cc1 (as salt: HCl) [Example 12, 4-[(Bis(4-fluorophenyl)methylamino)methyl]-1-[2-(phenyl)ethyl]piperidine], which melting point is on record?
The melting point was 214 to 215 °C.

For OC(CCN1CCN2CC1CCC2C(c1ccccc1)c1ccccc1)c1ccc(F)cc1 (single isomer, unassigned) [Example 11b], which Ki [1, 6] is on record?
Its Ki is 8.63 nM.

What about the NET/DAT ([1]; uptake inhibition selectivity, norepinephrine vs dopamine) of the same molecule?
The NET/DAT was 48.4.

What about the SERT/DAT ([1]; uptake inhibition selectivity, serotonin vs dopamine) of the same molecule?
The SERT/DAT was 172.

For O=C1CN(Cc2ccc(F)cc2)CCC1CCOC(c1ccccc1)c1ccccc1 (racemic) (as salt: oxalate) (hydrate or solvate) [Example 18, racemic 3-Keto-4-[2-(diphenylmethoxy)ethyl]-1-[(4-fluorophenyl)methyl]piperidine], which melting point is on record?
The melting point was 104 to 109 °C.

With CN(CC1CCN(Cc2ccc(F)cc2)CC1)CC(c1ccccc1)c1ccccc1 (as salt: oxalate) [Example 13] as the molecule, how does the melting point read?
The melting point was 144 to 145 °C.

With CCC(=O)OC1CN(Cc2ccc(F)cc2)CCC1CCOC(c1ccccc1)c1ccccc1 (racemic) [Example 17] as the molecule, how does the IC50 [2] read?
The IC50 was 583 ± 81 nM.

And the IC50 [3]?
The IC50 was 35800 nM.

And the IC50 ([4]; Table 5, rat striatum, read-out: SERT, IC50, nM [3H]citalopram)?
Its IC50 is 178 nM.

Which Ki [1, 6] does the source give for OC(CN1CCN2CC1CCC2C(c1ccccc1)c1ccccc1)c1ccc(F)cc1 [Example 7c, (R)-2-((5S,8S)-8-benzhydryl-1,4-diazabicyclo[3.3.1]nonane-2-yl)-1-4-fluorophenyl)ethanol] here?
The Ki was 66.5 nM.

What does the source list for FC(F)(F)c1ccc(CN2CCC(CCOC(c3ccccc3)c3ccccc3)CC2)cc1 [Example 3, 4-[2-(Diphenylmethoxy)ethyl]-1-[((4-trifluoromethyl)phenyl)methyl]piperidine]?
IC50 ([2]; read-out: DAT, IC50): 32.1 ± 2.1 nM; IC50 ([4]; Table 1, read-out: SERT, IC50): 2260 ± 144 nM

With Ic1ccc(CN2CCC(CCOC(c3ccccc3)c3ccccc3)CC2)cc1 (as salt: oxalate) [Example 19, 4-[2-(diphenylmethoxy)ethyl]-1-[(4-iodophenyl)methyl]piperidine] as the molecule, how does the melting point read?
Its melting point is 160 to 161 °C.

For “1-((5S,8S)-8-benzhydryl-1,4-diazabicyclo[3.3.1]nonane-2-yl)-3-phenylpropan-2-ol [Example 6a]”, which Ki [1, 5] is on record?
Its Ki is 82.9 nM.

For CN(CCC1CCN(Cc2ccccc2)CC1)C(c1ccccc1)c1ccccc1 [Example 10, 4-[2-((Diphenylmethyl)-N-methylamino)ethyl]-1-(4-phenylmethyl)piperidine], which IC50 ([2]; read-out: DAT, IC50, Table 1) is on record?
The IC50 was 213 ± 3 nM.

And the IC50 ([4]; Table 1, read-out: SERT, IC50)?
Its IC50 is 1660 ± 469 nM.

For O[C@@H](CN[C@H]1CC[C@@H](C(c2ccccc2)c2ccccc2)NC1)Cc1ccccc1 [Example 4c, (R)-1-[(3S,6S)-6-benzhydrylpiperidin-3-ylamino)-3-phenylpropan-2-ol], which Ki [1, 5] is on record?
The Ki was 25 nM.

Which IC50 ([2]; read-out: DAT, IC50, Table 1) does the source give for Oc1cccc(CN2CCC(CCOC(c3ccccc3)c3ccccc3)CC2)c1 [Example 3-OH, 4-[2-(diphenylmethoxy)ethyl]-1-[(3-hydroxyphenyl)methyl]piperidine] here?
The IC50 was 14.3 ± 3.7 nM.

And the IC50 ([3]; Table 1, read-out: NET, IC50)?
The IC50 was 678 ± 13 nM.

And the IC50 ([4]; Table 1, read-out: SERT, IC50)?
Its IC50 is 984 ± 94 nM.

For Ic1ccc(CN2CCC(CCOC(c3ccccc3)c3ccccc3)CC2)cc1 [Example 19, 4-[2-(diphenylmethoxy)ethyl]-1-[(4-iodophenyl)methyl]piperidine], which IC50 ([2]; read-out: DAT, IC50, Table 1) is on record?
Its IC50 is 0.96 ± 0.16 nM.

And the IC50 ([3]; Table 1, read-out: NET, IC50)?
Its IC50 is 1150 ± 116 nM.

And the IC50 ([4]; Table 1, read-out: SERT, IC50)?
Its IC50 is 2920 ± 432 nM.

For Fc1cccc(CN2CCC(CCOC(c3ccccc3)c3ccccc3)CC2)c1 [Example 1, 4-[2-(Diphenylmethoxy)ethyl]-1-[(3-fluorophenyl)methyl]piperidine], which IC50 ([2]; read-out: DAT, IC50, Table 1) is on record?
Its IC50 is 23.4 ± 3.8 nM.

What about the IC50 ([4]; Table 1, read-out: SERT, IC50) of the same molecule?
Its IC50 is 1150 ± 43.4 nM.

For N#Cc1ccc(CN2CCC(CCOC(c3ccccc3)c3ccccc3)CC2)cc1 (as salt: oxalate) [Example 4, 4-[2-(Diphenylmethoxy)ethyl]-1-[(4-cyanophenyl)methyl]piperidine], which melting point is on record?
Its melting point is 120 to 121 °C.

With OC1CN(Cc2ccc(F)cc2)CCC1CCOC(c1ccccc1)c1ccccc1 (racemic) (as salt: oxalate) [Example 16, racemic trans-3-hydroxy-4-[2-diphenylmethoxy)ethyl]-1-[(4-fluorophenyl)methyl]piperidine] as the molecule, how does the melting point read?
Its melting point is 143 to 150 °C.

With CC(NCCC1CCN(Cc2ccc(F)cc2)CC1)c1ccccc1 (centres unmarked) (as salt: oxalate) [Example 14, 4[2-[(1-(phenyl)ethyl)amino]ethyl]-1-[(4-fluorophenyl)methyl]piperidine] as the molecule, how does the melting point read?
The melting point was 172 to 173 °C.

With “1-((5S,8S)-8-benzhydryl-1,4-diazabicyclo[3.3.1]nonane-2-yl)-3-phenylpropan-2-ol [Example 6b]” as the molecule, how does the Ki [1, 5] read?
Its Ki is 16.8 nM.

Which melting point does the source give for Fc1ccc(CN2CCC(CCNC(c3ccccc3)c3ccccc3)CC2)cc1F (as salt: HCl) [Example 8, 4-[2-((Diphenylmethyl)amino)ethyl]-1-[(3,4-difluorophenyl)methyl]piperidine] here?
The melting point was 280 to 281 °C.

For OC(CCN1CCN2CC1CCC2C(c1ccccc1)c1ccccc1)c1ccc(F)cc1 (single isomer, unassigned) [Example 11a], which Ki [1, 6] is on record?
Its Ki is 41.8 nM.

Which melting point does the source give for Fc1cccc(CN2CCC(CCOC(c3ccccc3)c3ccccc3)CC2)c1 (as salt: oxalate) [Example 1, 4-[2-(Diphenylmethoxy)ethyl]-1-[(3-fluorophenyl)methyl]piperidine] here?
The melting point was 150 to 151 °C.

Which results are given for O=C(Cc1ccccc1)N1CCC(CCOC(c2ccccc2)c2ccccc2)CC1 [Example 5, 4-[2-(Diphenylmethoxy)ethyl]-1-[(phenylmethyl)carbonyl]piperidine]?
IC50 ([2]; read-out: DAT, IC50): 2160 ± 54 nM; IC50 ([4]; Table 1, read-out: SERT, IC50): > 1000 nM

With Fc1ccc(CN2CCC(CNCC(c3ccccc3)c3ccccc3)CC2)cc1 (as salt: HCl) [Example 11, 4-[[2-(Diphenyl)ethyl]aminomethyl]-1-[(4-fluorophenyl)methyl]piperidine] as the molecule, how does the melting point read?
The melting point was 126 to 127 °C.

What does the source list for CC(NCCC1CCN(Cc2ccc(F)cc2)CC1)c1ccccc1 (centres unmarked) [Example 14, 4[2-[(1-(phenyl)ethyl)amino]ethyl]-1-[(4-fluorophenyl)methyl]piperidine]?
IC50 ([2]; read-out: DAT, IC50, Table 1): 295 ± 40.9 nM; IC50 ([4]; Table 1, read-out: SERT, IC50): 963 ± 38.5 nM

What does the source list for CN(CC1CCN(Cc2ccc(F)cc2)CC1)CC(c1ccccc1)c1ccccc1 [Example 13]?
IC50 ([2]; read-out: DAT, IC50, Table 1): 94 ± 12.5 nM; IC50 ([4]; Table 1, read-out: SERT, IC50): 2520 ± 230 nM

For CC(OCCC1CCN(Cc2ccc(F)cc2)CC1)c1ccccc1 (centres unmarked) [4-[((1-phenylethoxy)ethyl]-1-[(4-fluorophenyl)methyl]piperidine], which IC50 ([2]; read-out: DAT, IC50, Table 1) is on record?
Its IC50 is 751 ± 61.6 nM.

And the IC50 ([4]; Table 1, read-out: SERT, IC50)?
The IC50 was 5860 ± 595 nM.

Which melting point does the source give for CS(=O)(=O)Nc1ccc(CN2CCC(CCOC(c3ccccc3)c3ccccc3)CC2)cc1 (as salt: oxalate) [Example 6, 4-[2-(Diphenylmethoxy)ethyl]-1-[((4-methylsulfonylamino)phenyl)methyl]piperidine] here?
The melting point was 122 to 124 °C.

For Fc1ccc(CN2CCC(CCOC(c3ccccc3)c3ccccc3)CC2)cc1F (as salt: oxalate) [Example 2, 4-[2-(Diphenylmethoxy)ethyl]-1-[(3,4-difluorophenyl)methyl]piperidine], which melting point is on record?
Its melting point is 158 to 159 °C.

With Fc1ccc(C(NCC2CCN(CCc3ccccc3)CC2)c2ccc(F)cc2)cc1 [Example 12, 4-[(Bis(4-fluorophenyl)methylamino)methyl]-1-[2-(phenyl)ethyl]piperidine] as the molecule, how does the IC50 ([2]; read-out: DAT, IC50) read?
Its IC50 is 65.3 ± 3.2 nM.

What about the IC50 ([4]; Table 1, read-out: SERT, IC50) of the same molecule?
Its IC50 is 1100 ± 246 nM.

For Fc1ccc(CN2CCC(CNOC(c3ccccc3)c3ccccc3)CC2)cc1 (as salt: oxalate) [Example 7, 4-[((2-Diphenylmethoxy)amino)methyl]-1-[(4-fluorophenyl)methyl]piperidine], which melting point is on record?
The melting point was 154 to 155 °C.
